# Tested on: F30-N16-1 RNA aptamer molecules
# Test: Binding of F30-N16-1 RNA aptamer molecules with different fluorescent molecules (fluorescence spectrum, activation multiple)
# Type: biochemical
# Settings: for Maximum emission peak (nm) / Maximum excitation peak (nm): complex with F30-N16-1; for Activation Multiple: fluorophore with F30-N16-1
# Method: Nucleic acid aptamer molecules of N16 or N16 mutants were prepared by using the commonly-used experimental method (I), 2.5 μM of nucleic acid aptamer molecules and 0.5 μM of fluorophore molecules were incubated in a detection buffer (40 mM of HEPES, pH 7.4, 125 mM of KCl, 5 mM of MgCl2, 5% DMSO), and the maximum excitation peak and the maximum emission peak of the fluorescence of the nucleic acid aptamer-fluorophore molecular complex were detected with Synergy Neo2 multifunctional enzyme-labeler. Synergy Neo2 multifunctional enzyme-labeler was used again to detect fluorescence intensity of the nucleic acid aptamer-fluorophore molecular complex under its maximum excitation and emission conditions, the control sample ([…] of fluorophore molecules without nucleic acid aptamer) was also measured under the same conditions, and the ratio of fluorescence intensity was calculated. For example, as for fluorescence of the complex formed by 2.5 μM of N16-1 nucleic acid aptamer and 0.5 μM of I-5-14 fluorophore molecules, the maximum excitation peak is 512 nm and the maximum emission peak is 574 nm. It was detected by the Synergy Neo2 multifunctional enzyme-labeler that the fluorescence intensity of the complex at an excitation condition of 512±10 nm and an emission condition of 574 nm±10 nm was 49,088, while the fluorescence intensity of the control (0.5 μM of I-5-14 fluorophore molecules) under the same detection conditions was 399, so the activation multiple of N16-1 nucleic acid aptamer to I-5-14 fluorophore molecules was 123.
# F30-N16-1 RNA aptamer molecules were prepared by using the commonly-used experimental method (I), and were used for detecting basic properties, including fluorescence spectrum and fluorescence activation multiple, of the binding of I-5-14 analogues with N16.
Compound,Maximum emission peak (nm),Maximum excitation peak (nm),Activation Multiple
CN(CCOC(=O)CCOCCO)c1ccc(/C=C2\SC(=S)NC2=O)c(Br)c1 [I-5-26],567 nm,497 nm,21
Cc1cc(N(C)CCNC(=O)CCOCCOCCO)ccc1/C=C1\SC(=O)NC1=S [I-5-27],603 nm,565 nm,11
CN1CCc2cc(/C=C3\SC(=O)NC3=O)ccc21 [I-5-29],525 nm,453 nm,14
CN1CCc2cc(/C=C3\NC(=S)NC3=O)c(Cl)cc21 [I-5-30],562 nm,497 nm,11
CN1C(=O)/C(=C/c2ccc3c(c2)SCCN3C)SC1=S [I-5-31],610 nm,503 nm,125
CN1C(=O)S/C(=C\c2ccc3c(c2)SCCN3C)C1=S [I-5-32],625 nm,519 nm,15
CN1CCSc2cc(/C=C3\SC(=O)NC3=O)ccc21 [I-5-33],553 nm,442 nm,154
CN1CCSc2cc(/C=C3\SC(=S)NC3=S)ccc21 [I-5-34],659 nm,547 nm,11
CCN1C(=O)/C(=C/c2ccc3c(c2)SCCN3C)NC1=S [I-5-35],585 nm,487 nm,10
CN1CCOc2cc(/C=C3\SC(=O)NC3=S)ccc21 [I-5-36],625 nm,517 nm,9
CN1CCOc2cc(/C=C3\SC(=S)NC3=O)ccc21 [I-5-37],603 nm,497 nm,256
CN1CCOc2cc(/C=C3\SC(=S)N(CCC(=O)O)C3=S)ccc21 [I-5-38],647 nm,545 nm,7
CN1CCCc2cc(/C=C3\SC(=O)NC3=O)ccc21 [I-5-39],509 nm,429 nm,14
CN1C(=O)/C(=C/c2ccc3c(c2)CCCN3C)NC1=S [I-5-40],548 nm,473 nm,8
CC1=CC(C)(C)N(C)c2ccc(/C=C3\SC(=S)NC3=O)cc21 [I-5-41],612 nm,517 nm,85
CC1=CC(C)(C)N(C)c2ccc(/C=C3\SC(=O)NC3=S)cc21 [I-5-42],627 nm,527 nm,11
CC1=CC(C)(C)N(C)c2ccc(/C=C3\SC(=S)NC3=S)cc21 [I-5-43],665 nm,572 nm,17
CCN1C(=O)S/C(=C\c2ccc3c(c2)C(C)=CC(C)(C)N3C)C1=O [I-5-44],549 nm,459 nm,21
CC1=CC(C)(C)N(C)c2ccc(/C=C3\NC(=S)NC3=O)cc21 [I-5-45],595 nm,497 nm,11
CN1C(=O)S/C(=C\c2cc3c4c(c2)CCCN4CCC3)C1=S [I-5-46],633 nm,542 nm,7
O=C1NC(=S)S/C1=C\c1cc2c3c(c1)CCCN3CCC2 [I-5-47],607 nm,529 nm,245
S=C1NC(=S)/C(=C/c2cc3c4c(c2)CCCN4CCC3)S1 [I-5-48],675 nm,579 nm,6
O=C1NC(=O)/C(=C/c2cc3c4c(c2)CCCN4CCC3)S1 [I-5-49],539 nm,469 nm,1025
O=C1NC(=S)N/C1=C\c1cc2c3c(c1)CCCN3CCC2 [I-5-50],597 nm,512 nm,7
CN(C)c1cc2sc(/C=C3\SC(=S)NC3=O)cc2s1 [I-5-51],654 nm,582 nm,1125

Compound,Maximum emission peak (nm),Maximum excitation peak (nm),Activation Multiple
CN(C)c1cc2sc(/C=C3\SC(=S)NC3=S)cc2s1 [I-5-52],725 nm,686 nm,7
CN(C)c1cc2sc(/C=C3\SC(=O)NC3=O)cc2s1 [I-5-53],593 nm,518 nm,1281
CN(CCO)c1cc2sc(/C=C3\OC(=O)NC3=O)cc2s1 [I-5-55],627 nm,513 nm,14
CN(CCO)c1cc2sc(/C=C3\SC(=O)NC3=S)cc2s1 [I-5-56],627 nm,568 nm,12
CN(CCO)c1cc2sc(/C=C3\SC(=S)NC3=O)cc2s1 [I-5-57],647 nm,579 nm,1279
CN(CCO)c1cc2sc(/C=C3\SC(=S)NC3=S)cc2s1 [I-5-58],725 nm,692 nm,1422
CN1C(=O)/C(=C/c2cc3sc(N(CCO)CCO)cc3s2)SC1=S [I-5-59],655 nm,581 nm,12
CN1C(=O)/C(=C/c2cc3sc(N(CCO)CCO)cc3s2)NC1=S [I-5-60],626 nm,552 nm,8
CN(CCO)c1ccc(-c2ccc(/C=C3\SC(=S)NC3=O)s2)cc1 [I-5-61],677 nm,483 nm,6
CN(CCO)c1ccc(-c2ccc(/C=C3\SC(=O)NC3=O)s2)s1 [I-5-62],689 nm,529 nm,256
CN1C(=O)/C(=C/c2ccc(-c3ccc(N(C)CCO)s3)cc2)NC1=S [I-5-63],673 nm,521 nm,6
CN(CCO)c1ccc2cc(/C=C3\SC(=S)NC3=O)sc2c1 [I-5-64],665 nm,522 nm,12
CN(CCO)c1ccc2cc(/C=C3\SC(=O)NC3=O)sc2c1 [I-5-65],605 nm,462 nm,35
CN(CCO)c1ccc2cc(/C=C3\SC(=S)NC3=S)sc2c1 [I-5-66],748 nm,666 nm,81
CN(C)c1ccc2cc(/C=C3\NC(=S)NC3=O)sc2c1 [I-5-67],652 nm,516 nm,7
CN1C(=O)/C(=C/c2cc3ccc(N(CCO)CCO)cc3s2)SC1=S [I-5-68],663 nm,536 nm,9
CN(CCO)c1ccc2nc(/C=C3\NC(=S)NC3=O)sc2c1 [I-5-69],661 nm,531 nm,11
CN(CCO)c1ccc2nc(/C=C3\SC(=S)N(CCC(=O)O)C3=O)sc2c1 [I-5-70],686 nm,556 nm,12
CN1C(=O)S/C(=C\c2nc3ccc(N(C)CCO)cc3s2)C1=O [I-5-71],627 nm,471 nm,6
Nc1ccc2nc(/C=C3\SC(=S)NC3=S)sc2c1 [I-5-72],721 nm,636 nm,14
CC1(C)c2cc(/C=C3\SC(=S)NC3=O)ccc2-c2ccc(N(CCO)CCO)cc21 [I-5-73],731 nm,681 nm,12
CN(C)c1ccc2c(c1)C(C)(C)c1cc(/C=C3\SC(=O)NC3=O)ccc1-2 [I-5-74],691 nm,635 nm,14
CN(CCO)c1ccc2c(c1)C(C)(C)c1cc(/C=C3\SC(=S)NC3=S)ccc1-2 [I-5-75],791 nm,741 nm,7
CN(CCO)c1ccc2c(c1)C(C)(C)c1cc(/C=C3\NC(=S)NC3=O)ccc1-2 [I-5-76],774 nm,724 nm,9

# Reference: patent US20240392302A1, “METHOD FOR DETECTING AND QUANTIFYING RNA” (FLUORESCENCE DIAGNOSIS (SHANGHAI) BIOTECH COMPANY LTD., priority 2021, published 2024)
